What was measured:
Type in all cases: cell-based, human
HeLa Kyoto cells = test: H3S10ph immuno-labelling of synchronised HeLa Kyoto cells; details: thymidine double block, BI2536 at 5 μM
Method: HeLa Kyoto cells were synchronised in S phase by a double thymidine block (Sigma). Briefly, a final concentration of 3 mM thymidine was added to the culture medium for 18 h, followed by release into fresh culture medium for 9 h and a second block with 3 mM thymidine for 17 h. […] Cell synchronisation was confirmed by flow cytometry. For immunofluorescence, HeLa Kyoto cells were grown on coverslips (12 mm #1 VWR International) and synchronised as described above. The synchronised cells were rinsed in PBS, fixed in 1% PFA, permeabilised with 0.1% Triton X-100/0.02% SDS, and blocked in 2% BSA. After the blocking step, phosphohistone H3 (H3S10ph) antibody was applied for 1 h at a dilution of 1/500 and after three washes with PBS, Alexa Fluor 594 antibody was added at a dilution of 1/300 for 1 h. Coverslips were washed three times in PBS and mounted with Vectashield non-fade DAPI (Vector Laboratories).

T47D cells = test: H3S10ph immuno-staining, mitotic phase distribution in T47D cells; design: reduction of the proportion of mitotic T47D cells in prophase/prometaphase: dose or concentration left out as unconfirmed
Method: (§1) To prepare cell monolayers, 0.5×10^6 cells were cytospun onto glass slides at 800×g for 5 min using a Cytospin 4 cytocentrifuge (Thermo Scientific), air dried and fixed in 4% neutral buffered formalin overnight.
Section deparaffinisation, antigen retrieval and immuno-staining were performed using the Bond III Autostainer and Bond Polymer Refine Detection kit (Leica) according to the manufacturer's instructions. Heat-mediated antigen retrieval and proteolytic digestion were used for H3S10ph and PAPPA antigens, respectively. Primary antibodies were applied for 40 min at the following dilutions: PAPP-A at 1/200; H3S10ph at 1/4000. Cytospin preparations were immuno-stained using the same protocol without the deparaffinisation step. Incubation without primary antibody was used as a negative control and sections of tonsil and placenta were used as positive controls for H3S10ph and PAPPA antibodies, respectively.
Two consecutive serial sections from each tissue sample and two cytospin preparations for each cell line were immuno-stained for H3S10ph for analysis of mitotic phase distribution. […]
PAPPA and ZMPSTE24 (control) are zinc-dependent metalloproteinases of the metzincin superfamily. […] PAPPA and ZMPSTE24 expression levels were determined by qRT-PCR and western blot. […]

BT549 cells = test: H3S10ph immuno-labelling, mitotic phase distribution in BT549 cells; details: BT549 cytospin preparations
Method: as §1
Section deparaffinisation, antigen retrieval and immuno-staining were performed using the Bond III Autostainer and Bond Polymer Refine Detection kit (Leica) according to the manufacturer's instructions. Heat-mediated antigen retrieval and proteolytic digestion were used for H3S10ph and PAPPA antigens, respectively. Primary antibodies were applied for 40 min at the following dilutions: PAPP-A at 1/200; H3S10ph at 1/4000. Cytospin preparations were immuno-stained using the same protocol without the deparaffinisation step. […]
PAPPA was silenced by RNAi with a specific RNA duplex targeting PAPPA mRNA (Ambion s10042; sense 5′-GAGCCUACUUGGAUGUUAAtt-3′ (SEQ ID NO. 37) and antisense 5′-UUAACAUCCAAGUAGGCUCtg-3′ (SEQ ID NO. 38) or, alternatively, a pool of duplexes (ON-TARGETpIus SMARTpooI, Dharmacon). Non-targeting siRNA (Stealth RNAi Negative Control Med GC, Invitrogen) was used as negative control. All transfections were performed with Lipofectamine 2000 (Invitrogen). PAPPA siRNA at 100 nM final concentration was used to achieve efficient knock-down. Cells were harvested at the indicated time points post-transfection. Knock-down efficiency was assessed by qRT-PCR and/or Western blot. […]

CC[C@@H]1C(=O)N(C)c2cnc(Nc3ccc(C(=O)NC4CCN(C)CC4)cc3OC)nc2N1C1CCCC1 [BI2536]
phosphohistone H3 (H3S10ph) detection in synchronised cells (HeLa Kyoto cells): enrichment of prometaphase cells

Cc1cn([C@H]2C[C@H](O)[C@@H](CO)O2)c(=O)[nH]c1=O [thymidine]
phosphohistone H3 (H3S10ph) detection in synchronised cells (HeLa Kyoto cells): not detected

IGF-1: recombinant Human IGF-1 (IMR-233, Imgenex); IGF receptor agonist
effect on mitotic delay phenotype in T47D cells (T47D cells; T47D cells (PAPPA promoter methylated)): reverses the mitotic delay phenotype | reduction of the proportion of mitotic T47D cells in prophase/prometaphase (T47D cells; recombinant human IGF-1, harvested 24 h later, cells serum starved 48 h, versus control): approximately one half

siRNA-42: single RNA duplex targeting PAPPA mRNA, Ambion s10042 (SEQ ID NO. 37 and 38) (chain 1 GAGCCUACUUGGAUGUUAA; chain 2 UUAACAUCCAAGUAGGCUC; listed as RNA, chemistry not given here)
mitotic phase phenotype in BT549 cells (BT549 cells): prophase/prometaphase delay phenotype

Reference: patent US20170298438A1, “DETECTION AND TREATMENT OF BREAST CANCER” (The European Molecular Biology Laboratory, priority 2011, published 2017)
